Data: patent US9493426B2, “Quinazolinone derivatives useful as FGFR kinase modulators” (priority 2013, dated 2016)
Like-named read-outs stand apart in the source and are kept apart here.

How the values were obtained:
[1] = target: KDR (h) (Homo sapiens, UniProt P35968); assay: KDR (VEGFR2) (enzymatic assay), TR-FRET; format: biochemical; conditions: 3 μM ATP; pIC50 = -log IC50 (M); read-out: VEGFR KDR pIC50 (converted)
Experimental: KDR (VEGFR2) (Enzymatic Assay)
In a final reaction volume of 30 μL, KDR (h) (150 ng/ml) was incubated with 50 mM HEPES pH 7.5, 6 mM MnCl2, 1 mM DTT, 0.1 mM Na3VO4, 0.01% Triton-X-100, 500 nM Btn-Flt3 and 3 μM ATP in the presence of compound (1% DMSO final). After incubation for 120 minutes at room temperature the reaction was stopped with 2.27 nM EU-anti P-Tyr, 7 mM EDTA, 31.25 nM SA-XL-665 and 0.02% BSA which was present for 60 minutes at room temperature. Time-Resolved Fluorescence Resonance Energy Transfer (TR-FRET) signal (ex340 nm. Em 620 nm, em 655 nm) was measured afterwards and results are expressed in RFU (Relative Fluorescence Units). In this assay, the inhibitory effect of different compound concentrations (range 10 μM to 0.1 nM) was determined and used to calculate an IC50 (M) and pIC50 (−log IC50) value.

[2] = target: T1, Ba/F3-KDR-transfected cells (Homo sapiens, UniProt P35968, cells depend on it, form not given); assay: Ba/F3-KDR (minus IL3 or plus IL3) cellular proliferation assay; format: cell-based; conditions: 24 hours, Alamar Blue
T1 construct: BAF3-KDR (MIN IL3 pIC50); other: minus IL3; 24 hours, Alamar Blue
Experimental: Ba/F3-KDR (Minus IL3 or Plus IL3) (Cellular Proliferation Assay)
(§1) In a 384 well plate, 100 nl of compound dilution in DMSO was sprayed before adding 50 μl cell culture medium (phenol red free RPMI-1640, 10% FBS, 2 mM L-Glutamine and 50 μg/ml Gentamycin) containing 20000 cells per well of Ba/F3-KDR-transfected cells. Cells were put in an incubator at 37° C. and 5% CO2. After 24 hours, 10 μl of Alamar Blue solution (0.5 mM K3Fe(CN)6, 0.5 mM K4Fe(CN)6, 0.15 mM Resazurin and 100 mM Phosphate Buffer) was added to the wells, incubated for 4 hours at 37° C. and 5% CO2 before RFU's (Relative Fluorescence Units) (ex. 540 nm., em. 590 nm.) were measured in a fluorescence plate reader.
(§2) In this assay, the inhibitory effect of different compound concentrations (range 10 μM to 0.1 nM) was determined and used to calculate an IC50 (M) and pIC50 (−log IC50) value. As a counterscreen the same experiment was performed in the presence of 10 ng/ml murine IL3.

[3] = target: FGFR3 (h) (Homo sapiens, UniProt P22607); assay: FGFR3 (enzymatic assay), TR-FRET; format: biochemical
[4] = target: FGFR4 (h) (Homo sapiens, UniProt P22455); assay: FGFR4 (enzymatic assay), TR-FRET; format: biochemical; conditions: 5 μM ATP; pIC50 = -log IC50 (M); read-out: FGFR 4 pIC50 (converted)
Sequence of FGFR4 (h) (P22455 22-802): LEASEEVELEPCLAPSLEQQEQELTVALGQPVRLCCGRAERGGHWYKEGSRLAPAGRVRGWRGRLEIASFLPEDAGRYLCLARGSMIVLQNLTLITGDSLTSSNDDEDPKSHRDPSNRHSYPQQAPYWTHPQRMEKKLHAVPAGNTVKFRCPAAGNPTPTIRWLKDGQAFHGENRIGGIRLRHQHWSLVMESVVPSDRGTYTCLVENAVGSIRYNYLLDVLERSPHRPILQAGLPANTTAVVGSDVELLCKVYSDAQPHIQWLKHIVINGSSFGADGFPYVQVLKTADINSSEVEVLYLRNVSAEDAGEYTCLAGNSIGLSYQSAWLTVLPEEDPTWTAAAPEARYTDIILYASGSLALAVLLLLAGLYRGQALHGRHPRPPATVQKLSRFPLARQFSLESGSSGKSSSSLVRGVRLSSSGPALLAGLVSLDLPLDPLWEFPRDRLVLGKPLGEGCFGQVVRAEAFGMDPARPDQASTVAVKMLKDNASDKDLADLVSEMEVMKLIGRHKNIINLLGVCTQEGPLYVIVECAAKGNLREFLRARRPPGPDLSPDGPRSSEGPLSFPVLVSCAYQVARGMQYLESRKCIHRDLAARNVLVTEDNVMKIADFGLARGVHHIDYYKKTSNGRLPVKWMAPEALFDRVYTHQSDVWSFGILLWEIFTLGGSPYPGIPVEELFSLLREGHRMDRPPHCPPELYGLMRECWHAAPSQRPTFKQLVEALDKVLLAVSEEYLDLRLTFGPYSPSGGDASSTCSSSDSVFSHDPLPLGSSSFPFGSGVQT

[5] = target: Ba/F3-FGFR4-transfected cells (Homo sapiens, UniProt P22455, cells depend on it, form not given); assay: Ba/F3-FGFR4 cellular proliferation assay; format: cell-based; conditions: 24 hours, Alamar Blue
Sequence of Ba/F3-FGFR4-transfected cells (P22455 whole entry, looked up, change not shown): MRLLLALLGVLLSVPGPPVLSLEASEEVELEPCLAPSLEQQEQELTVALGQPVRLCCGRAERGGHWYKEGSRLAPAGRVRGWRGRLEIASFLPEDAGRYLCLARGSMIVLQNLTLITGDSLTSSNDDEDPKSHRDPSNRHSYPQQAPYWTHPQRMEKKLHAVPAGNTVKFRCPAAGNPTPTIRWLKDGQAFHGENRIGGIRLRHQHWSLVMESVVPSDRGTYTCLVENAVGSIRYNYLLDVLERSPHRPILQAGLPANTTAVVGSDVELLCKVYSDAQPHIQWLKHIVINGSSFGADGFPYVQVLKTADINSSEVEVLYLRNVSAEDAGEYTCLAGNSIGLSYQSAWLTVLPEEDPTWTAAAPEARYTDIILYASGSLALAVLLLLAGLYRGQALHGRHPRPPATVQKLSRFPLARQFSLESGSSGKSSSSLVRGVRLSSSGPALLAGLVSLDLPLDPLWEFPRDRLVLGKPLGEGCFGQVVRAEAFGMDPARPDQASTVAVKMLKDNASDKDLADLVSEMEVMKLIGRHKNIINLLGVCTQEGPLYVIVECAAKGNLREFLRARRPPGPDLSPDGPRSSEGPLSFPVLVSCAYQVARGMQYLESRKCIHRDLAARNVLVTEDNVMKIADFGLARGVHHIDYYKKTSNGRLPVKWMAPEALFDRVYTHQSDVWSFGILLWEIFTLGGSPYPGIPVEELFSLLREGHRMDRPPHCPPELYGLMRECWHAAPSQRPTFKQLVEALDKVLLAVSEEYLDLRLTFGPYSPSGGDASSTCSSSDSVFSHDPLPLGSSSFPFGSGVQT
Experimental: Ba/F3-FGFR4 (Cellular Proliferation Assay)
as §1, with “Ba/F3-FGFR4-transfected” for “Ba/F3-KDR-transfected”
In this assay, the inhibitory effect of different compound concentrations (range 10 μM to 0.1 nM) was determined and used to calculate an IC50 (M) and pIC50 (−log IC50) value.

[6] = target: FGFR2 (h) (Homo sapiens, UniProt P21802); assay: FGFR2 (enzymatic assay), TR-FRET; format: biochemical
Sequence of FGFR2 (h) (P21802 22-821): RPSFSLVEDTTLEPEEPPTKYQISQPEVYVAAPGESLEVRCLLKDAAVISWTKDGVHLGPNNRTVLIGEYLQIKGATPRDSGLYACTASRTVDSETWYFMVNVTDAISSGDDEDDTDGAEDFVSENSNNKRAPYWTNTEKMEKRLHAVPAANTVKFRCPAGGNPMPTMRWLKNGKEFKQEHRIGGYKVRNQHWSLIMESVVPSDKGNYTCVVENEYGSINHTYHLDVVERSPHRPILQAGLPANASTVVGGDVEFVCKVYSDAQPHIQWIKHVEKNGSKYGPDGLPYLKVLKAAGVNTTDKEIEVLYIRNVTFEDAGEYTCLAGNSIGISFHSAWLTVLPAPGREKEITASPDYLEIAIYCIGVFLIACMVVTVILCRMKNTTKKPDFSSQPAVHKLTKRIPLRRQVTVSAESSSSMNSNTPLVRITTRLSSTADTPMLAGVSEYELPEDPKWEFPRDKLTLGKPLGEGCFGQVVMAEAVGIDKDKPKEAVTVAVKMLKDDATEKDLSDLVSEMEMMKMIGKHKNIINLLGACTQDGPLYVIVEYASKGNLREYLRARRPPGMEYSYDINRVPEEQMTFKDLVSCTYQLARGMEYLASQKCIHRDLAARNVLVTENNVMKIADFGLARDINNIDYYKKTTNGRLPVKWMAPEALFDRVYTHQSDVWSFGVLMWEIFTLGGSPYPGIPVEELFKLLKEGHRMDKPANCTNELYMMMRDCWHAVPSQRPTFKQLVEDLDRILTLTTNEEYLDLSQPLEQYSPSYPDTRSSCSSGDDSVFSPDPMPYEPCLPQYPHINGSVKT

[7] = target: FGFR1 (h) (Homo sapiens, UniProt P11362); assay: FGFR1 (enzymatic assay), TR-FRET; format: biochemical
Sequence of FGFR1 (h) (P11362 22-822): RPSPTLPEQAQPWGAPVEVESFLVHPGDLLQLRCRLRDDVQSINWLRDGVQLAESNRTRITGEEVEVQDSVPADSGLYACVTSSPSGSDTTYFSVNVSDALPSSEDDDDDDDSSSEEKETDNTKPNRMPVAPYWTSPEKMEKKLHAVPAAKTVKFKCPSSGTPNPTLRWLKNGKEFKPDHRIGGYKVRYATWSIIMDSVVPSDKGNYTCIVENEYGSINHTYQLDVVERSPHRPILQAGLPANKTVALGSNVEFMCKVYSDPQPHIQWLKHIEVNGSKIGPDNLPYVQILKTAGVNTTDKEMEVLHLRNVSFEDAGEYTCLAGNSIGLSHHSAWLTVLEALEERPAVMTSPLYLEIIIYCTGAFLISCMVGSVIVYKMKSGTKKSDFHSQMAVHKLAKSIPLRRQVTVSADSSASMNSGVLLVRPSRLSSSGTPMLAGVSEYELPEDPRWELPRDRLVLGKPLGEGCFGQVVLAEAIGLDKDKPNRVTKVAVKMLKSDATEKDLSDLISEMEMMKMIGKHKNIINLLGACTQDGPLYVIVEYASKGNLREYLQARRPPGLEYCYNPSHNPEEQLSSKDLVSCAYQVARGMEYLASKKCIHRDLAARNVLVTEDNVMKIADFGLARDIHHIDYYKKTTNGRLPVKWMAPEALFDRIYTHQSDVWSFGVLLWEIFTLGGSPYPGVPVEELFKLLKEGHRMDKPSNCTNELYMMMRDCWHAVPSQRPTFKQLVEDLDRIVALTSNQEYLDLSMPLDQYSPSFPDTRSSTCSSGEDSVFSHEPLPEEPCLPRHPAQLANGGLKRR

[8] = target: T2, Ba/F3-FGFR3-transfected cells (Homo sapiens, UniProt P22607, cells depend on it, form not given); assay: Ba/F3-FGFR3 (minus IL3 or plus IL3) cellular proliferation assay; format: cell-based; conditions: 24 hours, Alamar Blue
T2 construct: BAF3-FGFR3 (MIN IL3 pIC50); other: minus IL3; 24 hours, Alamar Blue
T2 sequence (P22607 whole entry, looked up, change not shown): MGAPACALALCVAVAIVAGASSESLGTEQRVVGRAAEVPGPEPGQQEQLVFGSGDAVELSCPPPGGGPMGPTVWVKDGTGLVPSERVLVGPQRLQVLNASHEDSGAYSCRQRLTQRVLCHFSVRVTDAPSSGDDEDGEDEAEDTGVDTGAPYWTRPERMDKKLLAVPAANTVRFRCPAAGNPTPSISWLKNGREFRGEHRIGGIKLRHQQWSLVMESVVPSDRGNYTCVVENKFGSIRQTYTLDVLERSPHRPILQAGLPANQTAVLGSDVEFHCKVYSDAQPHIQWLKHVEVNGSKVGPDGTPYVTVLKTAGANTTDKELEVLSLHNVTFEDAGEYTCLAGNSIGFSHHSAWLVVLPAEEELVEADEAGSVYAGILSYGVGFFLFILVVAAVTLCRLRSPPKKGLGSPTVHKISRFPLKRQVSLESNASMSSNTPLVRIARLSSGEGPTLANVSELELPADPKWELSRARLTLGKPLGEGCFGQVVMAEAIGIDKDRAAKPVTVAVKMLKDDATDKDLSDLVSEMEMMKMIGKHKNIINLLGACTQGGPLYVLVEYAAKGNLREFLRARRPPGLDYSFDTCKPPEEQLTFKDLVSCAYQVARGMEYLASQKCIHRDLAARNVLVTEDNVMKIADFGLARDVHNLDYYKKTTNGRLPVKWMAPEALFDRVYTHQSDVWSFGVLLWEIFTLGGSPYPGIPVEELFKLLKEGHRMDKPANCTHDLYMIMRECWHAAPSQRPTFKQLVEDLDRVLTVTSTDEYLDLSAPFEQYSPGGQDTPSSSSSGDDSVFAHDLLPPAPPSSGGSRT
Experimental: Ba/F3-FGFR3 (Minus IL3 or Plus IL3) (Cellular Proliferation Assay)
as §1, with “Ba/F3-FGFR3-transfected” for “Ba/F3-KDR-transfected”
as §2

[9] = target: T3, Ba/F3-FGFR1-transfected cells (Homo sapiens, UniProt P11362); assay: Ba/F3-FGFR1 (minus IL3 or plus IL3) cellular proliferation assay; format: cell-based; conditions: 24 hours, Alamar Blue
T3 construct: other: minus IL3; 24 hours, Alamar Blue
T3 sequence (P11362 whole entry, change not shown): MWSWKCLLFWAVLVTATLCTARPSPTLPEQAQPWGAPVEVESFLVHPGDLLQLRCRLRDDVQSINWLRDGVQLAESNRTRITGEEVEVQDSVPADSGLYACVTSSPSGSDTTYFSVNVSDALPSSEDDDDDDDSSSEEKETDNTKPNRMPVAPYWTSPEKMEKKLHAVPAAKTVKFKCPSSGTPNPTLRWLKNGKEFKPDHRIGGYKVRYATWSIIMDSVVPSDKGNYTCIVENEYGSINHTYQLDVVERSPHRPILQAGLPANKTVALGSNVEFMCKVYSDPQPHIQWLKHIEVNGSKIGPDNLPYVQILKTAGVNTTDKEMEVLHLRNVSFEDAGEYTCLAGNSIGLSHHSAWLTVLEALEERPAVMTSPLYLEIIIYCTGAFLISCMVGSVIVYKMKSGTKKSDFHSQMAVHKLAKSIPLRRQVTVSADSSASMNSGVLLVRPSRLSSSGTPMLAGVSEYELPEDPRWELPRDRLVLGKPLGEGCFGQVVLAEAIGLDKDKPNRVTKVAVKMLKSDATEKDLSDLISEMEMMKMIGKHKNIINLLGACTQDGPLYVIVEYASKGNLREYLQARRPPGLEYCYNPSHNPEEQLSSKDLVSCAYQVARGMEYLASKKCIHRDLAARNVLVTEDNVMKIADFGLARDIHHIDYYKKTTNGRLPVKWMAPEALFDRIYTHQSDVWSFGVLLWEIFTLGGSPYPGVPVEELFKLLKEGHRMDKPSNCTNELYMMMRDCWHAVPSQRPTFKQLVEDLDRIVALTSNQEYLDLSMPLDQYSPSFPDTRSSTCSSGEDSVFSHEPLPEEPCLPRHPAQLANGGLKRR
Experimental: Ba/F3-FGFR1 (Minus IL3 or Plus IL3) (Cellular Proliferation Assay)
as §1, with “Ba/F3-FGFR1-transfected” for “Ba/F3-KDR-transfected”
as §2

[10] = 25 μM ATP, pIC50 = -log IC50 (M), read-out: FGFR3 pIC50 (converted)
[11] = 0.4 μM ATP, pIC50 = -log IC50 (M), read-out: FGFR 2 pIC50 (converted)

SMILES | IC50 [1] [M] | BAF3-KDR (MIN IL3 pIC50) [2] | IC50 [3, 10] [M] | IC50 [4] [M] | BAF3-FGFR4 (pIC50) [5] | IC50 [6, 11] [M] | IC50 [7] [µM] | BAF3-FGFR3 (MIN IL3 pIC50) [8] | BAF3-FGFR1 (MIN IL3 pIC50) [9] | melting point [°C] | IC50 [3] [M] | IC50 [6] [M]
COc1cc(OC)cc(C(=O)c2ccc3ncn(-c4cnn(C)c4)c(=O)c3c2)c1 [Compound 24] | > 1e-06 | <5 | 7.94e-07 | > 1e-06 | <5 | 7.94e-07 | > 1 | <5 | <5 | 194 |  | 
COc1cc(OC)c(Cl)c(N(CCO)c2ccc3ncn(-c4ccccc4)c(=O)c3c2)c1Cl [Compound 5] | ~1e-06 | <5 | 2.51e-08 | 5.01e-07 | <5 | 3.98e-08 | 0.0631 | 5.3 | 5.5 | 251 |  | 
COc1cc(OC)c(Cl)c(N(CCO)c2ccc3ncn(-c4cnn(C)c4)c(=O)c3c2)c1Cl [Compound 10] | 5.01e-07 | ~5 | 7.94e-09 | 2e-07 | 5.1 | 1.58e-08 | 0.0126 | 6.3 | 6.2 | 223 |  | 
COc1cc(OC)c(F)c(N(CCNC(C)C)c2ccc3ncn(-c4ccccc4)c(=O)c3c2)c1F [Compound 2] | 2.51e-07 | 5.7 | 2.51e-08 | 3.98e-08 | 6.3 | 2.51e-08 | 0.00631 | 7.6 | 7.7 | 124 |  | 
COc1cc(OC)c(F)c(N(Cc2ncc[nH]2)c2ccc3ncn(-c4ccccc4)c(=O)c3c2)c1F [Compound 4] | > 1e-06 | <5 | 7.94e-09 | 2.51e-08 | 5.4 | 1.26e-08 | 0.0158 | 6.2 | 6.1 |  |  | 
COc1cc(OC)cc(N(CCO)c2ccc3ncn(-c4cnn(C)c4)c(=O)c3c2)c1 [Compound 8] | 7.94e-07 | <5 | 2e-08 | 1.58e-07 | 5.2 | 2.51e-08 | 0.0501 | 5.6 | 5.4 | 185 |  | 
COc1cc(OC)c(F)c(N(CCO)c2ccc3ncn(-c4cnn(C)c4)c(=O)c3c2)c1 [Compound 16] | 2e-07 | 5.2 | 2.51e-09 | 2.51e-08 | 5.7 | 5.01e-09 | 0.0126 | 6.4 | 6.3 | 164 |  | 
CNCCN(c1ccc2ncn(-c3cnn(C)c3)c(=O)c2c1)c1c(F)c(OC)cc(OC)c1F [Compound 20] | 1.58e-07 | 6.0 |  | 2.51e-08 | 6.7 | 1.26e-08 | 0.01 | 7.6 | 7.6 | 141 | 1.26e-08 | 
COc1cc(OC)c(Cl)c(N(Cc2ncc[nH]2)c2ccc3ncn(-c4cnn(C)c4)c(=O)c3c2)c1Cl [Compound 13] | 2.51e-07 | 5.1 | 1.26e-08 | 1.26e-07 | 5.2 |  | 0.0158 | 5.9 | 5.5 |  |  | 1.58e-08
COc1cccc(C(=O)c2ccc3ncn(-c4cnn(C)c4)c(=O)c3c2)c1 [Compound 23] | > 1e-06 | <5 | > 1e-06 | > 1e-06 | <5 | > 1e-06 | > 1 | <5 | <5 |  |  | 
